The numbers were not newly measured in patent publication US20220380769A1 (priority 2020, published 2022), which cites them from elsewhere.

This data set concerns avian H5N1 influenza virus clades. The following applies: in vivo; cited from earlier work.

Take rIn.r(C12U)n [Rintatolimod]: the “protection from lethal challenge doses of three avian H5N1 influenza virus clades” value is recorded as “able to protect”.
